Measured values as given in paper PMC6707405, “Screening Bioactive Compounds of Siraitia grosvenorii by Immobilized β2-Adrenergic Receptor Chromatography and Druggability Evaluation” (Frontiers in Pharmacology, 2019).
Read-outs that look alike come from different tables or passages of the source. One block for each compound: values may come before it.

Legend:
[1] = system: rat tracheal smooth muscle pre-contracted by high K+ solution; assay: Relaxation of isolated rat tracheal strips pre-contracted by high K+ solution, with or without ICI 118551; type: cell-based; details: 0.1 μM to 1.0 mM, high K+ (60 mM) pre-contracted
Method: The potential β2-AR-mediating relaxant mechanisms of the compound were also evaluated in the absence and presence of a specific inhibitor. This was performed with the scarification of rats weighing 250–300 g by exsanguination from the abdominal aorta. We collected the tracheal tissues between the larynx and the lungs and immediately immersed them in cold oxygenated Krebs solution (118 mM NaCl, 4.8 mM KCl, 2.5 mM CaCl2, 1.2 mM MgSO4, 25 mM NaHCO3, 1.2 mM KH2PO4, and 9.8 mM glucose; pH 7.4). After the removal of adhesive tissues, we spirally isolated the tracheal segment with three cartilage rings to assay the tracheal strip reactivity. Such strips were mounted onto two L-shaped stainless-steel holders connected with a force–displacement transducer. The isometric tension was determined in a tissue bath by a PowerLab data acquisition system.
We aerated the pre-warmed Krebs solution (37°C) with a gas mixture of 95% O2 and 5% CO2. At initial tests, the tracheal strips with tensions of 1.0-g mass were equilibrated for 60 min. The resulting strips were stimulated with high-potassium (K^+) solution (63 mM NaCl, 60 mM KCl, 2.5 mM CaCl2, 1.2 mM MgSO4, 25 mM NaHCO3, 1.2 mM KH2PO4, and 9.8 mM glucose; pH 7.4) to evoke a contractile response in the presence or absence of ICI 118551 (10 μM). […]

[2] = Stability of mogroside V in rat plasma (QC samples, HPLC-MS/MS); type: in vitro ADME; details: for Short term Stability (%): room temperature 14 h; for Long term Stability (%): −20°C 1 month; for Freeze–thaw Stability (%): three freeze (−20°C) and thaw cycles
Method: The stability of mogroside V in plasma was evaluated at three QC levels in six replicates under varieties of storing and processing conditions. The results of the peak area of QC samples were compared with those from freshly prepared standard samples. The QC samples with recoveries of 85–115% were defined as having good stability under the desired conditions. Short-term stability was assessed after QC samples were saved at room temperature for 14 h. Subsequently, freeze–thaw stability was assessed after three freeze (−20°C) and thaw (room temperature) cycles of QC samples. Long-term stability was examined after QC samples were saved at −20°C for 1 month.

[3] = Pharmacokinetic study in rats after oral administration (HPLC-MS/MS); type: in vivo, Sprague–Dawley (SD) rats; details: mogroside V 200 mg/kg or LHG extract 12.5 ml/kg
Method: Male Sprague–Dawley (SD) rats (240 ± 20 g) were purchased from the Experimental Animal Center of Xi’an Jiaotong University (Xi’an, China). The animals were maintained in a room under controlled temperature (24 ± 1°C) and humidity (50–70%) with 12-h light/dark cycle. The rats were fed with standard laboratory food and acclimatized to the environment for a week before the experiment. All animals were treated in accordance with the Guide for the Care and Use of Laboratory Animals under the approval of the Animal Experimentation Ethics Committee at Northwest University.
All the plasma samples were analyzed on an Inertsil ODS-3-C18 column (5 μm, 4.6 mm × 150 mm). The mobile phase for quantitative determination of mogroside V in rat plasma consisted of 29% acetonitrile/0.2% (v/v) formic acid at a flow rate of 0.6 ml/min. The injection volume was 20 μl under a detection wavelength of 203 nm.
The optimized mass conditions include the following: capillary voltage of 3,500 V, drying gas of 8 L/min at 350°C, nebulizer pressure of 40 psi at 350°C, and ion scan range of 100–2,000 amu. Under these conditions, multi-reaction monitoring (MRM) mode was carried out to specifically and sensitively detect the mogroside V. The mass transitions were m/z 1,285.6 → 1,123.6 for mogroside V and m/z 931.3 → 637.5 for IS (notoginsenoside R1).
An aliquot of 10 μl of IS working solution was added into an aliquot of 90 μl of plasma samples. Vortexing the mixture for 2.0 min, we centrifuged the plasma for 10 min with a speed of 12,000 rpm at a temperature of 4°C. The supernatant was collected and transferred to another 0.5-ml centrifuge tube and then blow dried with nitrogen. We applied 200 μl of methanol to redissolve it, which was used for analysis.
Eighteen rats were randomly divided into three groups of six for each group, including blank control, mogroside V, and LHG groups. The blank group was orally administered with normal saline. The other two groups were administered with mogroside V at a dose of 200 mg/kg and LHG aqueous extraction at a dose of 12.5 ml/kg (equivalent to 200 mg/kg mogroside V). Blood samples were collected in heparin sodium vacutainers at post-dose 5, 15, 30, 45, 60, 90, 120, 240, 360, 480, and 720 min. The plasma was pre-treated by centrifugation and frozen at −80°C until further analysis. The pharmacokinetic parameters including the area under curve (AUC0–720, and AUC0–∞), the maximum plasma concentration (Cmax), the time to achieve maximum plasma concentration (T max), and the elimination half-life (t 1/2z) were calculated by Drug and Statistics 3.0.0 software (DAS, T. C. M., Shanghai, China). All data were recorded as the mean ± standard deviation (SD), and the 95% confidence interval was also estimated when necessary.

[4] = molecular target: immobilized β2-AR (Homo sapiens, UniProt P07550)
Sequence of immobilized β2-AR (P07550 whole entry): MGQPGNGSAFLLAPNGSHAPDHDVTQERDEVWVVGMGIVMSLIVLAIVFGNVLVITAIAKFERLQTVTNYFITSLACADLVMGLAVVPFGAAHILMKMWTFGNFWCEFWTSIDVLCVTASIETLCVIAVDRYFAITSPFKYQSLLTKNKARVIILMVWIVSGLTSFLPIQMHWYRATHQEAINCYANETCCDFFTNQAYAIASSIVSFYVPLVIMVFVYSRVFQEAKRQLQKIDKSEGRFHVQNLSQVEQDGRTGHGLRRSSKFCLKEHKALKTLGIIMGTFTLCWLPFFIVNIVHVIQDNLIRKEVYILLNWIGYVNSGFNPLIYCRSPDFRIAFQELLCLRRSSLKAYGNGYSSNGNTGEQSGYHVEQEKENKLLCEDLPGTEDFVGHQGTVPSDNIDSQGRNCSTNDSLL

[5] = cited from earlier work
[6] = system: cough of mice; details: ref Liu et al., 2007; cited from earlier work
[7] = system: mice trachea; design: method as in Liu et al., 2007; details: ref Liu et al., 2007; cited from earlier work
[8] = system: ileum and trachea; design: method as in Liu et al., 2007; details: histamine-induced; ref Liu et al., 2007; cited from earlier work
[9] = dose 200 mg/kg, ref Qin et al. (2006); cited from earlier work
[10] = male, Sprague-Dawley, rat, in vivo, mogroside V in plasma

Compound: C[C@H](CC[C@@H](O[C@@H]1O[C@H](CO[C@@H]2O[C@H](CO)[C@@H](O)[C@H](O)[C@H]2O)[C@@H](O)[C@H](O)[C@H]1O[C@@H]1O[C@H](CO)[C@@H](O)[C@H](O)[C@H]1O)C(C)(C)O)[C@H]1CC[C@@]2(C)[C@@H]3CC=C4[C@@H](CC[C@H](O[C@@H]5O[C@H](CO[C@@H]6O[C@H](CO)[C@@H](O)[C@H](O)[C@H]6O)[C@@H](O)[C@H](O)[C@H]5O)C4(C)C)[C@]3(C)[C@H](O)C[C@]12C [Mogroside V]
relaxation of tracheal strips ([1]; absence of ICI 118551): concentration-dependent manner
relaxation of tracheal strips ([1]; presence of ICI 118551 (10 μM)): disappeared
Short term Stability (%) ([2]; rat plasma, 30 ng/ml added): 94.8%
Long term Stability (%) ([2]; rat plasma, 30 ng/ml added): 94.4%
Short term Stability (%) ([2]; rat plasma, 500 ng/ml added): 94.8%
Freeze–thaw Stability (%) ([2]; rat plasma, 500 ng/ml added): 95.4%
Long term Stability (%) ([2]; rat plasma, 500 ng/ml added): 93.8%
Short term Stability (%) ([2]; rat plasma, 5,000 ng/ml added): 93.2%
Freeze–thaw Stability (%) ([2]; rat plasma, 5,000 ng/ml added): 96.6%
Long term Stability (%) ([2]; rat plasma, 5,000 ng/ml added): 92.2%
Cmax [3, 10]: 1330 ng/mL
Tmax [3, 10]: 0.75 h
half-life ([3]; male, Sprague-Dawley, rat, in vivo, mogroside V in plasma, read-out: t1/2z): 2.31 ± 0.22 h
peak plasma concentration [3]: 1,330.6 ± 132.2 ng/ml
retention time of LHG extract peak on immobilized β2-AR column, identified as mogroside V ([4]; ammonium acetate buffer (5 mM, pH = 7.4), 0.2 ml/min, 203 nm, void time 0.7 min): 4.3 min
detection in rat plasma ([5]; oral administration, dose increased to 5 mg/kg, ref Luo, 2017): disappears
detection in rat plasma ([5]; tail intravenous injection (1.12 or 2.0 mg/kg) and intraperitoneal administration (1.12 mg/kg), ref Zhou et al., 2018): detectable
cough times of mice [6]: reducing the cough times
incubation period for cough of mice [6]: prolonged
phenol red excretion of mice trachea [7]: effective for extending
spasmodic contraction of the ileum and trachea caused by histamine [8]: obvious capability to antagonize
toxicity after oral administration [9]: nontoxic

Compound: O=N[O-].[Na+] [sodium nitrite, Sodium nitrite]
retention time on immobilized β2-AR column [4]: 0.7 min

retention time on immobilized β2-AR column ([4]; mobile phase ammonium acetate (5 mM, pH = 7.4), each injected three times): 1.0 min
Compound: COc1cc2nc(N3CCN(C(=O)C4CCCO4)CC3)nc(N)c2cc1OC (stereo not drawn) [terazosin]
